Test results published in US9988373B2, “Nitrogen-containing six-membered cyclic derivatives and pharmaceutical composition comprising the same” (SHIONOGI & CO., LTD., priority 2013, dated 2018).

Molecular target: T1, human P2X7 receptor (Homo sapiens, UniProt Q99572, R270H)
T1 construct: expressed in transfected cells
T1 sequence (Q99572 1-595 R270H): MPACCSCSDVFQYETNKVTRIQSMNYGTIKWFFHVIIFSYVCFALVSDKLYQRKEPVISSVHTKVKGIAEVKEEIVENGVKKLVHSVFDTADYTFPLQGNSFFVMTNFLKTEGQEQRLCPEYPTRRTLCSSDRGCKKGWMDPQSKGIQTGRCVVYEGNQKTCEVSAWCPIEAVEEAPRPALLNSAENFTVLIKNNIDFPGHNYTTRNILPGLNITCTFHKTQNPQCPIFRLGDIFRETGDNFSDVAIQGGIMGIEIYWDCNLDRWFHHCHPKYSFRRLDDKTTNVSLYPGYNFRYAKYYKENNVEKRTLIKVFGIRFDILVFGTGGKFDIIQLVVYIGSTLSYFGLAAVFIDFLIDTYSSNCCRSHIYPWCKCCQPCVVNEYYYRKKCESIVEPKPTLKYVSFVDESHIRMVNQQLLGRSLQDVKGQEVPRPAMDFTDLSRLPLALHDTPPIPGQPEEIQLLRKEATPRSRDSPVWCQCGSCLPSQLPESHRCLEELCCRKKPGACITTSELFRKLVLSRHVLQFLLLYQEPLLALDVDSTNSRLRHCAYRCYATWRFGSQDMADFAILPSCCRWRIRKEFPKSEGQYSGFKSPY
Experiment: Evaluation of a human P2X7 receptor inhibitory activity (Yo-Pro uptake, BzATP stimulation, FLIPR TETRA)
Type: cell-based
Details: antagonistic activity for the human P2X7 receptor, 1321N1 cell transfected with the human P2X7 receptor gene, Yo-Pro fluorescence
Procedure: Test Example 1 Evaluation of a Human P2X7 Receptor Inhibitory Activity
Stably expressing cell line (1321N1 cell transfected with the human P2X7 receptor gene (GenBank accession number NM_002562.5 including T606C and G952A SNP)) was used. The cells were seeded in a 384-well microtiter plate at a concentration of 8000 cells/well and cultured in the medium (10% fetal bovine serum, 25 mM HEPES, 1% penicillin and streptomycin in DMEM) for one day at 37° C. under 5% carbon dioxide atmosphere. After replacing with 20 μL of the HBSS buffer (20 mM HEPES. 55.6 mM D-glucose, 1×HBSS(−), pH 7.4-7.5), 15 μL of 17.3 μM Yo-Pro solution in the HBSS buffer was added. The plate was placed in high-throughput cellular screening system FLIPR TETRA (Molecullar Devices, LLC.) and 15 μL of 130 μM BzATP solution in the HBSS buffer was added. Measurement of fluorescence intensity by FLIPR TETRA was started. After eight minutes, 15 μL of DMSO solutions containing different concentrations of the compound of the present invention as prepared by dilution with the HBSS buffer were dispensed to each well through the built-in automatic dispenser, and the measurement of fluorescence intensity was continued for 20 minutes. The maximum fluorescence intensity without the compound of the present invention is calculated as 0% inhibition and the maximum fluorescence intensity when the reference compound was added is calculated as 100% inhibition. Changing values of fluorescence intensity by the compound of the present invention were calculated by difference between maximum and minimum fluorescence intensity for 20 minutes. Inhibition ratios (%) were calculated from the following equation:
[formula] IC50 was calculated using logistic approximation.

SMILES | IC50 (class symbols) [nM] | IC50 [nM]
CS(=O)(=O)c1ccc(Cn2ccc(=O)cc2-c2cccc(C(F)(F)F)c2Cl)cc1 [Compound I-060] | 1000 to 10000 | –
O=c1ccn(Cc2cccc(-c3ccccc3)c2)c(-c2cccc(C(F)(F)F)c2Cl)c1 [Compound I-061] | 1000 to 10000 | –
O=c1ccn(Cc2cccc(F)c2F)c(-c2cccc(C(F)(F)F)c2Cl)c1 [Compound I-062] | 500 to 1000 | –
NC(=O)c1ccc(Cn2ccc(=O)cc2-c2cccc(C(F)(F)F)c2Cl)cc1 [Compound I-063] | 1000 to 10000 | –
O=c1ccn(Cc2ccc(OCc3ccccc3)cc2)c(-c2cccc(C(F)(F)F)c2Cl)c1 [Compound I-064] | 1000 to 10000 | –
O=c1ccn(Cc2ccon2)c(-c2cccc(C(F)(F)F)c2Cl)c1 [Compound I-065] | 1000 to 10000 | –
O=c1ccn(Cc2nc(C(F)(F)F)cs2)c(-c2cccc(C(F)(F)F)c2Cl)c1 [Compound I-066] | 1000 to 10000 | –
O=c1ccn(Cc2ccc(C(F)(F)F)o2)c(-c2cccc(C(F)(F)F)c2Cl)c1 [Compound I-067] | 500 to 1000 | –
Cc1cc(Cn2ccc(=O)cc2-c2cccc(C(F)(F)F)c2Cl)on1 [Compound I-068] | 1000 to 10000 | –
O=C(c1ccccc1)c1cccc(Cn2ccc(=O)cc2-c2cccc(C(F)(F)F)c2Cl)c1 [Compound I-069] | 500 to 1000 | –
O=c1ccn(Cc2ccc(Oc3ccccc3)cc2)c(-c2cccc(C(F)(F)F)c2Cl)c1 [Compound I-070] | 1000 to 10000 | –
COc1ccccc1Cn1ccc(=O)cc1-c1cccc(C(F)(F)F)c1Cl [Compound I-071] | 100 to 500 | –
CCOc1cn(Cc2ccccc2)c(-c2cccc(C(F)(F)F)c2Cl)cc1=O [Compound I-072] | < 50 | –
N#CCOc1cn(Cc2ccccc2)c(-c2cccc(C(F)(F)F)c2Cl)cc1=O [Compound I-073] | < 50 | –
COc1cn(Cc2ccccc2C)c(-c2cccc3ncccc23)nc1=O [II-002] | 1000 to 10000 | –
COc1cn(Cc2ccc(F)cc2)c(-c2cccc(C(F)(F)F)c2Cl)nc1=O [II-004] | 100 to 500 | –
COc1cn(Cc2cccnc2)c(-c2cccc(C(F)(F)F)c2Cl)nc1=O [II-009] | 100 to 500 | –
COc1cn(Cc2cccc(C#N)c2)c(-c2cccc(C(F)(F)F)c2Cl)nc1=O [II-013] | 100 to 500 | –
COc1cn(Cc2ccc(C#N)cc2)c(-c2cccc(C(F)(F)F)c2Cl)nc1=O [II-014] | 1000 to 10000 | –

SMILES | IC50 (class symbols) [nM] | IC50 [nM]
COc1cn(Cc2cccc(CO)c2)c(-c2cccc(C(F)(F)F)c2Cl)nc1=O [II-019] | 50 to 100 | –
COc1cn(Cc2ccncc2)c(-c2cccc(C(F)(F)F)c2Cl)nc1=O [II-020] | 1000 to 10000 | –
N#CCOc1cn(Cc2ccccc2)c(-c2cccc(C(F)(F)F)c2Cl)nc1=O [II-022] | < 50 | –
O=c1nc(-c2cccc(C(F)(F)F)c2Cl)n(Cc2ccccc2)cc1OCc1ccccc1 [II-023] | < 50 | –
O=c1nc(-c2cccc(C(F)(F)F)c2Cl)n(Cc2ccccc2)cc1OCCO [II-025] | 50 to 100 | –
NCCOc1cn(Cc2ccccc2)c(-c2cccc(C(F)(F)F)c2Cl)nc1=O [II-027] | 500 to 1000 | –
CN(C)CCOc1cn(Cc2ccccc2)c(-c2cccc(C(F)(F)F)c2Cl)nc1=O [II-028] | 500 to 1000 | –
CC1(COc2cn(Cc3ccccc3)c(-c3cccc(C(F)(F)F)c3Cl)nc2=O)COC1 [II-029] | 100 to 500 | –
COc1cn(CC#N)c(-c2cccc(C(F)(F)F)c2Cl)nc1=O [II-032] | – | 1000
O=c1nc(-c2cccc(C(F)(F)F)c2Cl)n(Cc2ccccc2)cc1OCC(F)(F)F [II-033] | – | 60
CC(=O)COc1cn(Cc2ccccc2)c(-c2cccc(C(F)(F)F)c2Cl)nc1=O [II-034] | 50 to 100 | –
COc1cn(C(C)c2ccccc2)c(-c2cccc(C(F)(F)F)c2Cl)nc1=O (stereo not shown) [II-039] | 50 to 100 | –
C#CCOc1cn(Cc2ccccc2)c(-c2cccc(C(F)(F)F)c2Cl)nc1=O [II-040] | < 50 | –
CC(C#N)Oc1cn(Cc2ccccc2)c(-c2cccc(C(F)(F)F)c2Cl)nc1=O (stereo not shown) [II-041] | < 50 | –
CC(C)(C)OC(=O)Nc1cn(Cc2ccccc2)c(-c2cccc(C(F)(F)F)c2Cl)nc1=O [II-042] | 50 to 100 | –
O=c1ccn(Cc2ccccc2)c(-c2cccc(C(F)(F)F)c2Cl)n1 [II-048] | 100 to 500 | –
N#Cc1cn(Cc2ccc(F)cc2)c(-c2cccc(C(F)(F)F)c2Cl)nc1=O [II-049] | 50 to 100 | –
O=C(Nc1cn(Cc2ccccc2)c(-c2cccc(C(F)(F)F)c2Cl)nc1=O)OCC(F)(F)F [II-054] | 100 to 500 | –
COc1cn(Cc2ccccc2)c(-c2cccc(Cl)c2Cl)nc1=O [II-056] | – | 130

Next, values leading:

IC50 (class symbols) [nM] | IC50 [nM] | SMILES
< 50 | – | COc1cn(Cc2ccccc2C)c(-c2cccc(C(F)(F)F)c2Cl)nc1=O [II-001]
< 50 | – | Cc1ccccc1Cn1cc(Br)c(=O)nc1-c1cccc(C(F)(F)F)c1Cl [II-003]
50 to 100 | – | COc1cn(Cc2ccccc2F)c(-c2cccc(C(F)(F)F)c2Cl)nc1=O [II-005]
50 to 100 | – | COc1cn(Cc2cccc(F)c2)c(-c2cccc(C(F)(F)F)c2Cl)nc1=O [II-006]
50 to 100 | – | COc1cn(Cc2ccc(F)cc2C)c(-c2cccc(C(F)(F)F)c2Cl)nc1=O [II-007]
– | 41 | COc1cn(Cc2ccccc2)c(-c2cccc(C(F)(F)F)c2Cl)nc1=O [II-008]
< 50 | – | Cc1ccccc1Cn1cc(C)c(=O)nc1-c1cccc(C(F)(F)F)c1Cl [II-010]
< 50 | – | Cc1ccccc1Cn1cc(F)c(=O)nc1-c1cccc(C(F)(F)F)c1Cl [II-011]
100 to 500 | – | COc1cn(Cc2ccccc2C#N)c(-c2cccc(C(F)(F)F)c2Cl)nc1=O [II-012]
< 50 | – | COc1cn(Cc2ccccc2CO)c(-c2cccc(C(F)(F)F)c2Cl)nc1=O [II-015]
500 to 1000 | – | COc1cn(Cc2ccc(C)cc2)c(-c2cccc(C(F)(F)F)c2Cl)nc1=O [II-016]
100 to 500 | – | COc1cn(Cc2cccc(C)c2)c(-c2cccc(C(F)(F)F)c2Cl)nc1=O [II-017]
100 to 500 | – | COc1cn(Cc2ccccn2)c(-c2cccc(C(F)(F)F)c2Cl)nc1=O [II-018]
50 to 100 | – | CC(C)Oc1cn(Cc2ccccc2)c(-c2cccc(C(F)(F)F)c2Cl)nc1=O [II-021]
50 to 100 | – | CCOc1cn(Cc2ccccc2)c(-c2cccc(C(F)(F)F)c2Cl)nc1=O [II-024]
50 to 100 | – | COc1cn(Cc2cccnc2C)c(-c2cccc(C(F)(F)F)c2Cl)nc1=O [II-026]

IC50 (class symbols) [nM] | IC50 [nM] | SMILES
– | 210 | Cc1cn(Cc2ccccc2)c(-c2cccc(C(F)(F)F)c2Cl)nc1=O [II-030]
– | 58 | O=c1nc(-c2cccc(C(F)(F)F)c2Cl)n(Cc2ccccc2)cc1F [II-031]
100 to 500 | – | O=c1nc(-c2cccc(C(F)(F)F)c2Cl)n(Cc2ccccc2)cc1OC(F)F [II-035]
100 to 500 | – | O=c1nc(-c2cccc(C(F)(F)F)c2Cl)n(Cc2ccccc2)cc1C(F)(F)F [II-036]
< 50 | – | N#Cc1cn(Cc2ccccc2)c(-c2cccc(C(F)(F)F)c2Cl)nc1=O [II-037]
500 to 1000 | – | NC(=O)c1cn(Cc2ccccc2)c(-c2cccc(C(F)(F)F)c2Cl)nc1=O [II-038]
50 to 100 | – | N#CCNc1cn(Cc2ccccc2)c(-c2cccc(C(F)(F)F)c2Cl)nc1=O [II-043]
100 to 500 | – | CNc1cn(Cc2ccccc2)c(-c2cccc(C(F)(F)F)c2Cl)nc1=O [II-044]
– | 270 | Nc1cn(Cc2ccccc2)c(-c2cccc(C(F)(F)F)c2Cl)nc1=O [II-045]
– | 180 | CC(=O)Nc1cn(Cc2ccccc2)c(-c2cccc(C(F)(F)F)c2Cl)nc1=O [II-046]
100 to 500 | – | CS(=O)(=O)Nc1cn(Cc2ccccc2)c(-c2cccc(C(F)(F)F)c2Cl)nc1=O [II-047]
100 to 500 | – | N#CCn1cc(-c2ccccc2)c(=O)nc1-c1cccc(C(F)(F)F)c1Cl [II-050]
100 to 500 | – | CN(C)c1cn(Cc2ccccc2)c(-c2cccc(C(F)(F)F)c2Cl)nc1=O [II-051]
< 50 | – | COc1cn(Cc2cccc3ncccc23)c(-c2cccc(C(F)(F)F)c2Cl)nc1=O [II-052]
– | 71 | COC(=O)Nc1cn(Cc2ccccc2)c(-c2cccc(C(F)(F)F)c2Cl)nc1=O [II-053]
– | 20 | COc1cn(Cc2cccc3ccccc23)c(-c2cccc(C(F)(F)F)c2Cl)nc1=O [II-055]
